According to article PMC11617668, “Developing Allosteric Inhibitors of SARS‐CoV‐2 RNA‐Dependent RNA Polymerase” (Chemmedchem, 2024):
In brackets after ≈: the same amount, converted by molar mass. Read-outs that look alike come from different tables or passages of the source.

Experiments:
[1] = Solubility in water (stated in words); format: physicochemical
[2] = biological target: SARS‐CoV‐2 RdRp complex (nsp12, nsp7, nsp8) (Severe acute respiratory syndrome coronavirus 2, UniProt P0DTD1); test: Fluorescence-based RdRp polymerase assay (SYBR Green I RNA extension); format: biochemical
in vitro = details: human
Protocol: (§1) Briefly, two‐fold fold serial dilutions of compounds were added in triplicate in a 384‐well plate with 15,000 Calu‐3 cells in DMEM medium with 2 % FBS, 100 U of penicillin/ml and 100 μg of streptomycin/ml (all Merck). After 1 h incubation SARS‐CoV‐2 was added at multiplicity of infection 0.01. Following three days incubation at 37 °C in 5 % CO2 the cell viability was determined by addition of XTT solution (Sigma‐Aldrich) for 4 h and the absorbance was measured using EnVision plate reader (Perkin Elmer). Drug concentrations required to reduce viral cytopathic effect by 50 % (EC50) were calculated using nonlinear regression from plots of percentage cell viability versus log10 drug concentration using GraphPad Prism v.9.0.0 (GraphPad Software). Cytotoxicity was evaluated by incubating the same two‐fold serial dilutions of each compound with Calu‐3 cells as above but without virus. Following three days of incubation at 37 °C in 5 % CO2, the cell viability was determined by the addition of XTT solution as above. The compound concentrations resulting in a 50 % reduction of absorbance (CC50) were calculated from plots of the percentage of absorbance versus log10 drug concentration as above.

SARS‐CoV‐2 [3] = details: Severe acute respiratory syndrome coronavirus 2, Calu-3, 72 h
Protocol: as §1

[4] = Kinetic solubility test in enzymatic assay medium; format: physicochemical; details: aqueous HEPES buffer with 5 % DMSO, pH 8, aqueous with cosolvent or surfactant or cyclodextrin, kinetic from dmso stock
Protocol: Kinetic solubility tests were performed in the medium used for the enzymatic assay–aqueous solution of HEPES buffer with 5 % DMSO. […] This poor aqueous solubility represents a big hurdle in the development of potential antivirals and the improvement of solubility will be considered in further structural optimization efforts of this class of compounds.

SARS‐CoV‐2 [5] = details: cited from earlier work
COVID‐19 = details: cited from earlier work
[6] = Cytotoxicity in Calu-3 cells without virus (XTT); details: human, CC50, Calu‐3 cells, no virus, three days
Protocol: as §1

Calu‐3 cells = test: Cytotoxicity in Calu-3 cells without virus (XTT); details: Calu‐3 cells, no virus, three days
Protocol: as §1

[7] = 50 min, read-out: residual activity (RA) of the SARS‐CoV‐2 RdRp complex
[8] = read-out: residual activity (RA) of SARS‐CoV‐2 RdRp

Q: With CC(C)OC(=O)c1cc(NC(=O)Nc2cccc([N+](=O)[O-])c2)cc(C(=O)OC(C)C)c1 [Compound 1] as the compound, how does the solubility in water [1] read?
A: poorly soluble in water

Q: And the remaining activity at 10 µM [2, 7]?
A: 57%

Q: What about the CC50 at 3 days (in vitro) of the same compound?
A: 23 µM

Q: What about the EC50 (SARS‐CoV‐2 [3]) of the same compound?
A: > 23 µM

Q: What does the source list for O=C(Nc1cccc(C(F)(F)F)c1)Nc1nc2cc(Cl)c(Cl)cc2[nH]1 [Compound 59, 1‐(5,6‐Dichloro‐1H‐Benzo[d]imidazol‐2‐yl)‐3‐(3‐(Trifluoromethyl)phenyl)urea]?
A: solubility kinetic [4]: 2.53 ± 0.03 µM (≈ 0.985 µg/mL); remaining activity at 10 µM [2, 7]: 50%; CC50 at 3 days (in vitro): 23 µM; EC50 (SARS‐CoV‐2 [3]): ~10 µM

Q: Which results are given for O=C(Nc1cc(Cl)cc(Cl)c1)Nc1nc2ccc(C(F)(F)F)cc2[nH]1 [Compound 60, 1‐(3,5‐Dichlorophenyl)‐3‐(6‐(Trifluoromethyl)‐1H‐Benzo[d]imidazol‐2‐yl)urea]?
A: solubility kinetic [4]: < 2.1 µM; remaining activity at 10 µM [2, 7]: 28%; CC50 at 3 days (in vitro): 0.65 µM; EC50 (SARS‐CoV‐2 [3]): > 0.65 µM

Q: What does the source list for O=C(Nc1cc(C(F)(F)F)cc(C(F)(F)F)c1)Nc1ccc(Br)cc1-c1nnn[nH]1 [Endovion, endovion, reference compound]?
A: activity in cell assays against the virus (SARS‐CoV‐2 [5]): active; solubility in water [1]: poorly soluble in water; remaining activity at 10 µM [2, 7]: 40%; CC50 at 3 days (in vitro): > 64 µM; EC50 (SARS‐CoV‐2 [3]): > 64 µM

Q: Which “post‐hospitalization mortality rate” value (COVID‐19; 30‐day‐long study, patients with moderate COVID‐19, placebo 9.7 %) does the source give for CC(C)C(=O)OC[C@H]1O[C@@H](n2ccc(NO)nc2=O)[C@H](O)[C@@H]1O [Molnupiravir, molnupiravir] here?
A: 6.8%

Q: What does the source list for CCC(CC)COC(=O)[C@H](C)N[P@](=O)(OC[C@H]1O[C@@](C#N)(c2ccc3c(N)ncnn23)[C@H](O)[C@@H]1O)Oc1ccccc1 [Remdesivir, remdesivir, reference compound]?
A: remaining activity at 10 µM [2, 8]: 62%; remaining activity at 50 µM [2, 8]: 40%; remaining activity at 100 µM [2, 8]: 25%; mortality among hospitalized adults (COVID‐19; Adaptive COVID Treatment Trial (ACTT), placebo 15.2 %): 11.4%; improvement compared with placebo (COVID‐19; Hubei (China) study): no statistically significant improvement; CC50 at 3 days [6]: > 3.2 µM; CC50 (Calu‐3 cells): > 5 µM; EC50 (SARS‐CoV‐2 [3]): 0.11 µM

Q: For NC(=O)c1nc(F)c[nH]c1=O [favipiravir], which clinical recovery rate (COVID‐19; open‐label randomized trial in China, COVID‐19 patients) is on record?
A: did not significantly improve
